Several values for one entry are separate records, joined by “and”; a condition that tells them apart may be missing. Equal values may be shown once.
Assays:
[1] = test system: basal forebrain cholinergic neurons; assay: Fimbria-fornix transection, ChAT-positive medial septum neurons; format: in vivo, F344 rats; conditions: AIT-082 30 mg/kg IP every three days, 14 days post-lesion
Description: This model is the gold standard for examining the effects of neurotrophic factors, neurotrophic factor-releasing agents, and neurotrophic factor analogues in the central nervous system (CNS). Fimbria-fornix transections (FFT) are performed to induce the degeneration of basal forebrain cholinergic (BFC) neurons. […] The infusion of nerve growth factor completely prevents the degeneration of these neurons. In this experiment, animals received AIT-082 to determine whether it would prevent lesion-induced degeneration of BFC neurons.
Adult female F344 rats received an intraperitoneal (IP) injection of AIT-082 (30 mg/kg) or saline one hour prior to receiving a unilateral fimbria-fornix transection (FFT) (n=6 per group). All animals survived the surgery and continued to receive IP injections of AIT-082 or vehicle every three days following the lesion. All animals were perfused with fixative at 14 days post-lesion and brains were sectioned and processed for choline acetyltransferase (ChAT) and p75 immunoreactivity. For analysis, three sections, 240 μm apart, were taken at the level of the medial septum and ChAT positive cells were counted both ipsilateral and contralateral to the lesion.
For the results of FIG. 44, ChAT-positive cells were counted in three sections, 240 μm apart. Data was expressed as a ratio of cell counts ipsilateral to the lesion divided by counts contralateral to the lesion. […]

[2] = test system: mice; assay: Elevated Plus maze (anxiety); format: in vivo
From the text: A Plus maze was constructed of black plexiglass consisting of two opposite-facing open arms (30×5 cm, L×W) and two opposite facing closed arms (30×5×15 cm, L×W×H). The walls of the closed arms were clear plexiglass and the four arms were connected by a central area 5×5 cm. The entire Plus maze was mounted on a base 38 cm above the floor. Testing consisted of placing the subject at one end of one of the open arms. The time the subject took to leave the start position (the first 10 cm of the open arm) was recorded. The time it took for the subject to enter halfway into one of the closed arms was also recorded. When the subject arrived at the half-way point in the closed arm, the three-minute test session began. During the three-minute test session, the number of times the subject entered the open arms was recorded. An entry was defined as placing at least two paws onto the platform of the open arm.

[3] = test system: NT-3; assay: Two-site ELISA of growth factor protein in rat brain and spinal cord: NT-3; format: in vivo, F344 rats
Description: Adult female F344 rats were given either AIT-082 (doses: 30 mg/kg/day or a higher dose of 30 mg/ml (˜3,000 mg/kg/day); n=6 rats per group) in their drinking water, or water alone, as a vehicle for control. The duration of the study was seven days, at which time the rats were anesthesized and perfused with ice-cold saline. The brains of the rats were rapidly removed. The brains were placed on a chilled glass plate and dissected into the following regions: basal forebrain, frontal cortex, parietal cortex, cerebellum, spinal cord, and hippocampal formation. Tissues were stored at −70° C. until assayed in a specific two-site ELISA for either NGF, BDNF, NT-3, or GNDF.
The results are shown in FIGS. 45 (BDNF), 46 (NT-3), 47 (GDNF) and 48 (NGF). For the results shown in FIGS. 45-48, animals were given only water (VEH, n=6) or water with AIT-082 at either 30 mg/kg/day (n=6) or 30 mg/ml (n=6) for seven days. The levels of each growth factor were determined in the frontal cortex (F. Cor.), parietal cortex (P.Cor.), hippocampal formation (Hipp.), basal forebrain (B.F.), cerebellum (Cer.), or spinal cord (Cord) using a specific two-site ELISA for each growth factor.
Adult female rats were given AIT-082 (30 mg/kg/day) in their drinking water or drinking water alone (n=6 for each group) for seven days prior to receiving a bilateral fimbria fornix transection (FFT).
The results are shown in FIGS. 49 (BDNF), 50 (NT-3), 51 (GDNF) and 52 (NGF). For the results shown in the Figures, animals were given only water (VEH, n=3) or water with AIT-082 at 30 mg/kg/day (n=3). Levels of the growth factor were determined in frontal cortex (F.Cor.), parietal cortex (P.Cor.), hippocampal formation (Hipp.), basal forebrain (B.F.), cerebellum (Cer.), or spinal cord (Cord) using a specific two-site ELISA for each growth factor.
Aged female Fischer 344 rats (obtained from National Institute on Aging; 24 months on arrival) were given AIT-082 (30 mg/kg/day) in their drinking water or drinking water alone, for a period of 30 days (n=5 rats per group). After 30 days, animals were sacrificed and fresh tissues were dissected as described above. An additional set of young animals (n=5) was processed along with the aged rats for comparison.
Results are shown in FIGS. 53 (BDNF), 54 (NT3), 55 (GDNF), and 56 (NGF). As described above, for the results shown in these figures, aged rats (24 months of age) were given water (vehicle control; n=5) or water with AIT-082 (at 30 mg/kg/day; n=5 for 30 days). A separate group of young untreated animals was also included (n=5). Levels of each growth factor were determined in frontal cortex (F.Cor.), parietal cortex (P. Cor.), hippocampal formation (Hipp.), basal forebrain (B.F.), cerebellum (Cer.) or spinal cord (Cord) using a specific two-site ELISA.

[4] = Brain tissue levels of AIT-082 (HPLC); format: in vivo, C57BL/6 mice; conditions: for Level of AIT-082 in brain tissue: 30 mg/kg i.p., 30 minutes after administration, 30 mg/kg
[5] = test system: mice; assay: Motor coordination, accelerating Roto-Rod treadmill; format: in vivo; conditions: AIT dose 0.005 mg/kg
Description: Motor coordination was measured using an accelerating Roto-Rod treadmill for mice (Ugo Basile Co.). At various times after treatment with saline or drug, mice were placed on the Roto-Rod, which accelerates to maximum speed over a 5 minute period. The time in seconds at which the subject falls off was recorded in Table B directly below. Each animal was tested 3 times and the mean time was recorded.

[6] = test system: TGFβ1; assay: Summary of effects on growth factor mRNA and protein (Table R): TGFβ1; set-up: key: ± = mRNA; + = protein; nt = not tested; conditions: Cultured Cells
From the text: The constellation of effects of AIT-082 on production of mRNA encoding growth factors and on production of growth factor proteins is shown in Table R. The results summarized in […] show both transcriptional and translational effects on growth factors that are in the categories of neurotrophins, pleiotrophins, members of the S100 family of EF hand calcium binding proteins, and members of the TGFβ superfamily. As indicated, effects have been shown at both the mRNA (transcriptional) and protein (translational) levels.

O=C(CCn1cnc2c(=O)[nH]cnc21)Nc1ccc(C(=O)O)cc1 [AIT-082, N-4-carboxyphenyl-3-(6-oxohydropurin-9-yl)propanamide]
lesion-induced loss of ChAT-labeled cells in the BFC region [1]: did not reduce lesion-induced loss of ChAT-labeled cells | anxiogenic effect in Plus maze ([2]; 0.005 to 0.5 mg/kg): not observed | anxiogenic effect in Plus maze ([2]; 30 mg/kg): slight anxiogenic effect | anxiogenic effect in Plus maze ([2]; 60 mg/kg): not observed | NT-3 protein levels compared to vehicle controls ([3]; FFT-lesioned rats, 30 mg/kg/day, basal forebrain): threefold | NT-3 protein levels ([3]; aged rats, 30 mg/kg/day 30 days, hippocampus): restored NT-3 protein levels to those of young animals | NT-3 protein levels ([3]; intact adult rats, 30 mg/kg/day, cerebellum): increased NT-3 levels in cerebellum over vehicle controls | NT-3 protein levels ([3]; intact adult rats, 3000 mg/kg/day, cerebellum): absent | level detected in brain ([4]; 30 minutes after oral administration): ≤ 3.3 ng/mg brain tissue | Level of AIT-082 in brain tissue ([4]; Cortex): 2.8 ng/mg brain tissue and 3.4 ng/mg brain tissue | Level of AIT-082 in brain tissue ([4]; Remainder of brain): 2.3 ng/mg brain tissue and 3.3 ng/mg brain tissue | passage of the blood-brain barrier ([4]; brain tissue after 30 minutes): crosses the blood-brain barrier without degradation | Roto-Rod performance, Time [5]: 162 ± 93 s | TGFβ1, effect on mRNA/protein production [6]: +

Reference: patent publication US6338963B1, “Use of carbon monoxide dependent guanylyl cyclase modifiers to stimulate neuritogenesis” (NeoTherapeutics, Inc., priority 1994, dated 2002)
